Converted amounts (≈) assume the structure as drawn.
Details: buffer; pH 7.4; 200.0 µM

Structure (SMILES) | solubility kinetic
Cn1cccc1/C=C(/C#N)c1ccc(F)cc1 | 2.9 µg/mL (≈ 12.8 µM)
NC(=O)c1ccc(NC(=O)COC(=O)CC23CC4CC(CC(Br)(C4)C2)C3)cc1 | > 67.4 µg/mL
CS(=O)(=O)N(CC(=O)N1CCN(Cc2ccccc2)CC1)c1cccc(F)c1 | 57.9 µg/mL (≈ 143 µM)
CC12CN(C(=O)c3cccc([N+](=O)[O-])c3)C3(C#N)CC1CCC23C (stereo not given) | 45.3 µg/mL (≈ 139 µM)
C=CCSc1nc2sc3c(c2c(=O)n1CC)CCc1ccccc1-3 | > 53.2 µg/mL
O=C1NS(=O)c2cc([N+](=O)[O-])cc([N+](=O)[O-])c21 (stereo not given) | > 38.6 µg/mL
COc1ccc(NC(=O)CNC(=O)c2c(C)nn(C)c2Cl)cc1 | > 50.5 µg/mL
NC(=O)C1CCN(c2ccc(S(=O)(=O)N3CCCCC3)cc2[N+](=O)[O-])CC1 | 7.6 µg/mL (≈ 19.2 µM)
Cc1cccc(CSc2ncnc3ccccc23)c1 | 0.4 µg/mL (≈ 1.5 µM)
O=C1CSC(c2cccnc2)N1Cc1ccc(Cl)cc1 (stereo not given) | 42.6 µg/mL (≈ 140 µM)
Cn1c(/C=C/c2ccccc2[N+](=O)[O-])nc2ccccc2c1=O | 0.6 µg/mL (≈ 1.95 µM)
Cc1c(/C=N/O)c2ccccn2c1C(=O)c1ccc(F)cc1 | 5.5 µg/mL (≈ 18.6 µM)
COc1cccc(NC(=O)COC(=O)C2C3CC4OC(=O)C2C4C3)c1 (stereo not given) | 49.5 µg/mL (≈ 143 µM)
Cc1ccc(N2C(=O)CC(=O)NC2=O)cc1Cl | > 37.9 µg/mL
Nc1nc(C(F)(F)F)cc(=O)[nH]1 | 22.8 µg/mL (≈ 127 µM)
Cc1cc(C)c(NC(=S)N(C)C)c(C)c1 | > 33.4 µg/mL
COc1ccc(OCCCC(=O)Nc2nc(C)c(C(C)=O)s2)cc1 | 1.3 µg/mL (≈ 3.73 µM)
O=C(O)/C=C/C(=O)Nc1cc(F)ccc1F | > 34.1 µg/mL
Cc1cccc(NC(=O)c2cccc(C(=O)Nc3cccc(C)n3)c2)n1 | 0.9 µg/mL (≈ 2.6 µM)
COC(=O)c1sccc1N/C=C(\C#N)S(=O)(=O)C(C)(C)C | 2.3 µg/mL (≈ 7 µM)
Cc1nnc(NC(=O)CN2CC(C)OC(C)C2)s1 (stereo not given) | > 40.6 µg/mL
COC(C(=O)Nc1c(F)cccc1F)c1ccccc1 (stereo not given) | > 41.6 µg/mL
Cc1ccc(C(=O)OCC(=O)NC(=O)c2ccccc2)o1 | 32.9 µg/mL (≈ 115 µM)
Cc1ccc(C(=O)N/C(=C\c2cccs2)C(=O)N2CCOCC2)cc1C | > 55.6 µg/mL

Structure (SMILES) | solubility kinetic
O=C(CN1C(=O)C(=O)N(CCC2=CCCCC2)C1=O)Nc1ccc(F)cc1F | 6.5 µg/mL (≈ 16.6 µM)
CCCN1CNc2c(c(=O)[nH]c(=S)n2CCc2ccccc2)C1 | 1.7 µg/mL (≈ 5.14 µM)
Cc1cc(SCc2ccc(F)cc2)nc(=O)[nH]1 | 22.1 µg/mL (≈ 88.3 µM)
C1CCCCCC(NCCN2CCNCC2)CCCCC1 | > 44.3 µg/mL
CN(C)C=Nc1nonc1-c1ccc(Cl)cc1 | 1.4 µg/mL (≈ 5.58 µM)
COC(=O)c1ccc(C(=O)OC)c(NC(=S)N2CCCC(CO)C2)c1 (stereo not given) | 50.9 µg/mL (≈ 139 µM)
CCC(C)NC(=O)Cn1nc(Cc2ccncc2)c2ccccc2c1=O (stereo not given) | > 52.6 µg/mL
Nc1cncc(C(=O)O)c1 | > 20.7 µg/mL
CC1CCCC(C)N1C(=O)COC(=O)c1nn(C)c(=O)c2ccccc12 (stereo not given) | > 53.6 µg/mL
CCOC(=O)COn1c(=O)c(-c2ccc(OC)cc2)[n+]([O-])c2ccccc21 | 42 µg/mL (≈ 113 µM)
CCCc1c(C)[nH]c2ccc(C(=O)O)cc2c1=S | > 39.2 µg/mL
COc1ccc(C(=O)Nc2cc(S(=O)(=O)N3CCCC3)ccc2Cl)cc1 | 9.2 µg/mL (≈ 23.3 µM)
Cc1c(C(=O)NC2CCCC2)oc2ccccc12 | 33.9 µg/mL (≈ 139 µM)
Cc1ccc(CNC(=O)CCSCc2ccc(C)cc2)cc1 | 14.3 µg/mL (≈ 45.6 µM)
CC(=O)c1cccc(N=Cc2c(O)c3ccccc3oc2=O)c1 | 11.2 µg/mL (≈ 36.4 µM)
O=C(NC(O)C(=O)c1ccccc1)c1ccccn1 (stereo not given) | > 38.4 µg/mL
O=S(=O)(c1ccccc1)N1CCN(c2cccc(Cl)c2)CC1 | 3.8 µg/mL (≈ 11.3 µM)
CC(C)c1ccc(N=C2N=C(N)c3ccccc32)cc1 | 15.4 µg/mL (≈ 58.5 µM)
O=C(NC1CCCc2ccccc21)C12CC3CC(CC(O)(C3)C1)C2 (stereo not given) | 41.4 µg/mL (≈ 127 µM)
CC(=O)N(CCS(=O)(=O)c1ccc(Cl)cc1)Cc1cccs1 | 39.9 µg/mL (≈ 111 µM)
COc1ccccc1CN(C)C(=O)CNC(=O)c1cccc(Cl)c1 | 50.8 µg/mL (≈ 146 µM)
O=C(Cn1cc(C(F)(F)F)ccc1=O)NC1CCCC1 | > 43.2 µg/mL
CCS(=O)(=O)c1ccc(O)c(NC(=O)CCCC(=O)O)c1 | 41.5 µg/mL (≈ 132 µM)
COc1ccccc1NC(=S)NCc1ccc(F)cc1 | 34 µg/mL (≈ 117 µM)

Structure (SMILES) | solubility kinetic
Cc1nnc(SCC(=O)NC2CCCCC2)[nH]c1=O | > 42.4 µg/mL
O=S(=O)(c1ccc(Cl)cc1)N1CCN(Cc2cccnc2)CC1 | 49.4 µg/mL (≈ 140 µM)
CCOc1ccc(S(=O)(=O)NCCC(=O)NC2CCC(C)CC2)cc1 (stereo not given) | 37.7 µg/mL (≈ 102 µM)
COC(=O)c1sccc1Oc1ccc(Cl)cc1N1C(=O)CCC1=O | 48.5 µg/mL (≈ 133 µM)
CN(C(=O)COc1ncnc2sccc12)C1CCCCC1 | > 45.8 µg/mL
Cc1ccc(Nc2c(-c3ccc(N(C)C)cc3)nc3ncccn23)cc1 | 1 µg/mL (≈ 2.91 µM)
COc1ccc(C2NC(=O)NC3=C2C(=O)CCC3)cc1 (stereo not given) | > 40.8 µg/mL
N#Cc1ccc(NC(=O)c2cc(=O)c3ccccc3o2)cc1 | 0.8 µg/mL (≈ 2.76 µM)
COc1ccc(NC(=O)c2ccco2)c2ccccc12 | > 40.1 µg/mL
CC(=O)Nc1ccc(NC(=O)C(C)Sc2nnc(-c3ccc4c(c3)OCO4)o2)cc1 (stereo not given) | > 64 µg/mL
Cc1cc(C)cc(Nc2ccc3nonc3c2[N+](=O)[O-])c1 | 1.1 µg/mL (≈ 3.87 µM)
CCCC(=O)NCc1ccncc1 | > 26.7 µg/mL
CC(C)N1CCNCC1.Cl | 23.1 µg/mL
Nc1cccc(C(=O)N/N=C/c2ccsc2)c1 | > 36.8 µg/mL
CN1CCCN(C(=O)CNC(=O)c2ccc(Cl)cc2Cl)CC1 | 50.8 µg/mL (≈ 148 µM)
O=C(NCCCO)/C(=C\c1ccco1)NC(=O)c1ccco1 | > 45.6 µg/mL
Cn1c(=O)c2[nH]c(C3CCCC3)nc2n(C)c1=O | > 37.2 µg/mL
CCOc1ccc2[nH]cc(-c3csc(N)n3)c2c1 | 20.5 µg/mL (≈ 79 µM)
CS/C(=C(/C#N)S(=O)(=O)c1ccc(Cl)cc1)N1CCOCC1 | 49.7 µg/mL (≈ 138 µM)
CN(C(=O)/C=C/c1ccc2c(c1)OCO2)c1ccccc1 | 34.7 µg/mL (≈ 123 µM)
C=CCn1c(/N=C/c2ccc(OC)cc2)nc2ccccc21 | 40.6 µg/mL (≈ 139 µM)
Cc1ccc(N(C(=O)Nc2ccccc2)C2=NCCC2)cc1 | 4.5 µg/mL (≈ 15.3 µM)
CC(NCC(O)c1ccc([N+](=O)[O-])cc1)C12CC3CC(CC(C3)C1)C2 (stereo not given) | 38.3 µg/mL (≈ 111 µM)
c1ccc(-c2nnc(-c3ccccn3)c(-c3ccccn3)n2)nc1 | > 46.8 µg/mL

Structure (SMILES) | solubility kinetic
O=C(NCc1cccnc1)C(=O)C1C(=O)Nc2ccccc21 (stereo not given) | 42.5 µg/mL (≈ 144 µM)
CCOC(=O)c1ccc(N2C(=O)CC(Sc3nc(C)cc(C)n3)C2=O)cc1 (stereo not given) | 4 µg/mL (≈ 10.4 µM)
O=C(COC(=O)c1ccc[n+]([O-])c1)Nc1ccc([N+](=O)[O-])cc1Cl | > 52.8 µg/mL
Cn1c(SCC(=O)NC2CCCC2)nc2c(c1=O)SCC2 | > 48.8 µg/mL
Cc1ccc(CNC(=O)COC(=O)C2CC2)cc1 | > 37.1 µg/mL
Cc1cccc(NC(=O)Nc2ccccc2[N+](=O)[O-])n1 | 0.3 µg/mL (≈ 1.1 µM)
CC(=O)Nc1cccc(NC(=O)/C=C/c2ccc(S(=O)(=O)N3CCOCC3)cc2)c1 | 18.8 µg/mL (≈ 43.8 µM)
CC(C)C(C)NC(=O)Cn1cnc2c(oc3ccccc32)c1=O (stereo not given) | 17.3 µg/mL (≈ 55.2 µM)
COc1ccc(CCC(=O)NCc2ccccc2OC)cc1 | > 44.9 µg/mL
CC(=O)Nc1ccc(N2CCN(Cc3ccccc3)CC2)cc1 | 43.5 µg/mL (≈ 141 µM)
S=C(NCc1ccco1)Nc1ccc(Oc2ccc(Cl)cc2)cc1 | < 0.4 µg/mL
C=CCNC(=O)COC(=O)c1nc2nccc(C)n2n1 | > 41.3 µg/mL
O=C(CNC(=O)c1ccco1)NNC(=O)c1ccc(Br)cc1 | > 54.9 µg/mL
COc1ccc(OCC(=O)NC2CCSc3ccccc32)cc1 (stereo not given) | 38.6 µg/mL (≈ 117 µM)
CCOCCCn1c(SCC(=O)N2CCOCC2)nc2ccccc2c1=O | > 58.7 µg/mL
Cc1ccc2nc(-c3ccccc3)c(-c3ccccc3)nc2c1 | < 0.3 µg/mL
CC1CC1C(=O)Nc1nc(-c2ccc(Cl)s2)cs1 (stereo not given) | 0.6 µg/mL (≈ 2.01 µM)
Cc1cccc(-c2nnc(SCC(=O)NC3CC3)n2C)c1 | > 45.4 µg/mL
CCCC1(c2ccccc2)NC(=O)NC1=O (stereo not given) | > 32.7 µg/mL
Cc1cccc(NC(=O)CC2(CC(=O)O)CCCC2)c1 | 41.2 µg/mL (≈ 150 µM)
CS(=O)(=O)CCSc1ncccc1C(=O)NCc1cccs1 | 53.1 µg/mL (≈ 149 µM)
O=C(O)c1cccc2c1C(=O)N(C1CCCC1)C2 | 34 µg/mL (≈ 139 µM)
Cc1nc2ccccc2c(=O)n1-c1ccc([N+](=O)[O-])cc1 | > 42.2 µg/mL
O=C1c2cccc3cccc(c23)C(=O)N1c1ccc(O)cc1 | < 0.6 µg/mL

Structure (SMILES) | solubility kinetic
c1ccc(-c2noc(CN3CCc4sccc4C3)n2)cc1 | 13.4 µg/mL (≈ 45.1 µM)
Cc1ccc(NC(=O)c2cc3c(=O)oc4ccc(C)cc4c3s2)nc1 | < 0.4 µg/mL
CN(C)C(CNC(=O)c1cccc(C#N)c1)c1ccco1 (stereo not given) | 39.3 µg/mL (≈ 139 µM)
Cc1cc(C)nc(SCC(=O)c2ccc(F)c(C)c2)n1 | 14.7 µg/mL (≈ 50.6 µM)
COc1ccc(NCC(=O)N2CCCC2)cc1Cl | 38 µg/mL (≈ 141 µM)
COc1ccc(-c2nonc2NC(=O)c2ccco2)cc1OC | > 47.3 µg/mL
O=C(COc1ncnc2ccccc12)Nc1cccc([N+](=O)[O-])c1 | 15.1 µg/mL (≈ 46.6 µM)
C=CCn1c(SCC(=O)N(C)C)nc2cc(C(=O)O)ccc2c1=O | > 52.1 µg/mL
CSc1ncccc1C(=O)OCC(=O)NC(C)(C)C | > 42.4 µg/mL
C=CCN(C(=O)c1ccccc1)C1CCS(=O)(=O)C1 (stereo not given) | 37.4 µg/mL (≈ 134 µM)
CC1CCN(C(=S)c2cccc(O)c2)CC1 | 32.8 µg/mL (≈ 139 µM)
Cc1ccc(Oc2nc3c(c(=O)n(C)c(=O)n3C)n2C)cc1C | 40 µg/mL (≈ 127 µM)
Cc1ccccc1-n1ccnc1SCC(=O)NCc1ccco1 | > 49.1 µg/mL
CCC1CCCCN1C(=O)COC(=O)COc1ccc(Br)cc1 (stereo not given) | > 57.6 µg/mL
O=C(Nc1ccccc1)C(=O)c1c[nH]c2ccccc12 | 0.8 µg/mL (≈ 3.03 µM)
CCOc1ccc(CCNC(=O)COC(=O)c2ccc(C)s2)cc1OCC | 23.7 µg/mL (≈ 60.5 µM)
COC(=O)[C@H](CC(C)C)NC(=O)N1CCCCC1 | > 38.5 µg/mL
COc1ccc2[nH]cc(CCNC(=O)Cc3ccc(F)cc3)c2c1 | 25.4 µg/mL (≈ 77.8 µM)
c1ccc(Cc2c[nH]c3ccccc23)cc1 | 6.7 µg/mL (≈ 32.3 µM)
N#CCC(=O)Nc1ccc(C(=O)NCc2ccccn2)cc1 | > 44.1 µg/mL
N=C1C(c2ccccc2)=C(O)CN1c1cccc2ccccc12 | > 45.1 µg/mL
CSc1nc(C)cc(Oc2ccc(OCC(N)=O)nn2)n1 | > 46.1 µg/mL
C=C(C)Cn1cnc2c(oc3nc4c(cc32)CCCC4)c1=O | 2.5 µg/mL (≈ 8.46 µM)
O=C(Nc1ccc(F)cc1)c1ccc2ncsc2c1 | 10.3 µg/mL (≈ 37.8 µM)

From PubChem BioAssay AID1996
